Source: patent US20140066394A1, “Substituted 6-(Benzylamino) Purine Riboside Derivatives, Use Thereof and Compositions Containing These Derivatives” (Biopatterns, S.R.O, priority 2009, published 2014)

Experiment: Solubility noted on isolation of the product
Format: physicochemical
Details: qualitative, solvent as stated
Experimental: 2-Benzylmercapto-6-(2-hydroxy-3-methoxybenzylamino)purine riboside (1.18 g) was dissolved in liquid ammonia (125 mL) to yield a clear yellow solution. […]. Sodium was added in small portions until the blue colouration persisted for 15 mins A small amount of solid ammonium chloride was added cautiously to remove excess Na. The ammonia was evaporated to a small volume on a hot plate and ether (125 mL) added (to remove bibenzyl formed as a by-product). After most of the remaining ammonia had been evolved the ether extract was extracted with water (2×65 mL). The aqueous extrakt (at pH 12 to 13) was adjusted to 5 with AcOH cooling to below 10 on dry ice. A creamy solid precipitated. The solid was filtered, washed thoroughly with water and dried overnight over calcium chloride to yield a virtually white, very light powder. Yield: 760 mg. 2-Mercapto-6-(2-hydroxy-3-methoxybenzylamino)purine riboside gives a sharp, symmetrical peak on HPLC (300 nm) and moves readily on TLC in MeOH/chloroform mixtures. […] EtOH solution develops strong yellow colour on standing at room temperature for several days.
2-Methylmercapto-6-chloropurine riboside (3.3 g, 10 mmol) was refluxed with 2-hydroxy-3-methoxybenzylamine ([…], 12 5 mmol) in butanol (100 mL) containing triethylamine (3.2 mL) for 2 h. The butanol was removed under vacuum at 50 to 60° C. […]

| solubility | Compound |
| --- | --- |
| very soluble in methanol and water | COc1cccc(CNc2nc(SC)nc3c2ncn3[C@@H]2O[C@H](CO)[C@@H](O)[C@H]2O)c1O [Compound 87, 2-Methylmercapto-6-(2-hydroxy-3-methoxybenzylamino)purine riboside] |
| soluble in EtOH | COc1cccc(CNc2nc(S)nc3c2ncn3[C@@H]2O[C@H](CO)[C@@H](O)[C@H]2O)c1O [Compound 71, 2-Mercapto-6-(2-hydroxy-3-methoxybenzylamino)purine riboside] |
